Assay results as given in patent publication US20260042731A1, “(2,4-DICHLOROPHENOXY)ACETIC ACID ANALOGS” (CORTEVA AGRISCIENCE LLC, priority 2022, published 2026).
Values joined by “and” are separate entries in the source; they are usually repeats but may differ in a detail not shown here. Equal values may be shown once. Read-outs that look alike come from different tables or passages of the source.

Assays:
[1] = system: Chenopodium album (CHEAL), common lambsquarters; experiment: Postemergence herbicide evaluation, growth of Chenopodium album (CHEAL); format: in vivo; conditions: for Ave. CHEAL, percent reduction in plant size relative to the untreated control: 21 DAA; for pest or weed control at 280 g/ha / pest or weed control at 560 g/ha: Chenopodium album, post-emergence, percent reduction in plant size relative to untreated control, read-out: Ave. CHEAL
[2] = system: weeds (ABUTH, AMATA, AMBEL, CHEAL, ERICA); experiment: Postemergence herbicide evaluation, overall average % weed control across ABUTH, AMATA, AMBEL, CHEAL, ERICA; format: in vivo; conditions: post-emergence, average over the five weeds, read-out: Overall Ave % Weed Control; for pest or weed control at 280 g/ha: 280 g ae/ha; for pest or weed control at 560 g/ha: 560 g ae/ha
[3] = system: Ambrosia artemisiifolia (AMBEL), common ragweed; experiment: Postemergence herbicide evaluation, growth of Ambrosia artemisiifolia (AMBEL); format: in vivo; conditions: for AVE. AMBEL, percent reduction in plant size relative to the untreated control: 21 DAA; for pest or weed control at 280 g/ha / pest or weed control at 560 g/ha: Ambrosia artemisiifolia, post-emergence, percent reduction in plant size relative to untreated control, read-out: AVE. AMBEL
[4] = system: glyphosate resistant Conyza canadensis (L.) (ERICA), horseweed; experiment: Postemergence herbicide evaluation, growth of Conyza canadensis (ERICA); format: in vivo; conditions: for Ave. ERICA, percent reduction in plant size relative to the untreated control: 21 DAA; for pest or weed control at 280 g/ha / pest or weed control at 560 g/ha: Erigeron canadensis, post-emergence, percent reduction in plant size relative to untreated control, read-out: Ave. ERICA
[5] = Volatility of compounds measured by thermogravimetric analysis (TGA); format: physicochemical
[6] = system: Abutilon theophrasti (ABUTH), velvetleaf; experiment: Postemergence herbicide evaluation, growth of Abutilon theophrasti (ABUTH); format: in vivo; conditions: for AVE. ABUTH, percent reduction in plant size relative to the untreated control: 21 DAA; for pest or weed control at 280 g/ha / pest or weed control at 560 g/ha: Abutilon theophrasti, post-emergence, percent reduction in plant size relative to untreated control, read-out: AVE. ABUTH
[7] = system: ABUTH, AMATA, AMBEL, CHEAL, ERICA weeds; experiment: Postemergence herbicide evaluation, overall average % weed control across ABUTH, AMATA, AMBEL, CHEAL, ERICA; format: in vivo; conditions: 21 DAA
Text: For example, the pesticidal activity may include herbicidal activity.

[8] = system: Amaranthus rudis (AMATA), tall water hemp; experiment: Postemergence herbicide evaluation, growth of Amaranthus rudis (AMATA); format: in vivo; conditions: for Ave. AMATA, percent reduction in plant size relative to the untreated control: 21 DAA; for pest or weed control at 280 g/ha / pest or weed control at 560 g/ha: Amaranthus tuberculatus, post-emergence, percent reduction in plant size relative to untreated control, read-out: Ave. AMATA
Corn (ZEAMX) = experiment: Greenhouse post-emergence mixture trials, percent visual control; format: in vivo; conditions: Trial Bridge 2, ZEAMX, 21 DAA
Horseweed (ERICA) = experiment: as above; format: in vivo; conditions: 21 DAA
[9] = system: Common Lambsquarters (CHEAL); experiment: as above; format: in vivo; conditions: CHEAL, 21 DAA
Tall Waterhemp (AMATA) = experiment: as above; format: in vivo; conditions: Trial Bridge 2, 21 DAA
Velvetleaf (ABUTH) = experiment: as above; format: in vivo; conditions: Trial Bridge 2, ABUTH, 21 DAA, compound 0 g ae/ha
[10] = Trifludimoxazin 12.5 g ai or ae/ha alone (B2 rate 0)
[11] = Trifludimoxazin 25 g ai or ae/ha alone (B2 rate 0)
[12] = Trifludimoxazin 50 g ai or ae/ha alone (B2 rate 0)
[13] = Trial Bridge 2, Trifludimoxazin 25 g ai or ae/ha alone (B2 rate 0)
[14] = Trial Bridge 2, Trifludimoxazin 50 g ai or ae/ha alone (B2 rate 0)

N/C(Cc1ccccc1)=N\OC(=O)COc1ccc(Cl)cc1Cl [Compound A17, N′-(2-(2,4-Dichlorophenoxy)acetoxy)-2-phenylacetimidamide]
Ave. CHEAL, percent reduction in plant size relative to the untreated control ([1]; 280 g ae/ha): 85%
Ave. CHEAL, percent reduction in plant size relative to the untreated control ([1]; 560 g ae/ha): 90%
pest or weed control at 280 g/ha ([1]; 168 h, 280 g ae/ha, 7 DAA): 70%
pest or weed control at 560 g/ha ([1]; 168 h, 560 g ae/ha, 7 DAA): 68%
pest or weed control at 280 g/ha ([1]; 336 h, 280 g ae/ha, 14 DAA): 78%
pest or weed control at 560 g/ha ([1]; 336 h, 560 g ae/ha, 14 DAA): 85%
pest or weed control at 280 g/ha ([2]; 168 h, 7 DAA): 64%
pest or weed control at 560 g/ha ([2]; 168 h, 7 DAA): 70%
pest or weed control at 280 g/ha ([2]; 336 h, 14 DAA): 78%
pest or weed control at 560 g/ha ([2]; 336 h, 14 DAA): 85%
AVE. AMBEL, percent reduction in plant size relative to the untreated control ([3]; 280 g ae/ha): 92%
AVE. AMBEL, percent reduction in plant size relative to the untreated control ([3]; 560 g ae/ha): 99%
pest or weed control at 280 g/ha ([3]; 168 h, 280 g ae/ha, 7 DAA): 65%
pest or weed control at 560 g/ha ([3]; 168 h, 560 g ae/ha, 7 DAA): 80%
pest or weed control at 280 g/ha ([3]; 336 h, 280 g ae/ha, 14 DAA): 86%
pest or weed control at 560 g/ha ([3]; 336 h, 560 g ae/ha, 14 DAA): 96%
Ave. ERICA, percent reduction in plant size relative to the untreated control ([4]; 280 g ae/ha): 97%
Ave. ERICA, percent reduction in plant size relative to the untreated control ([4]; 560 g ae/ha): 94%
pest or weed control at 280 g/ha ([4]; 168 h, 280 g ae/ha, 7 DAA): 65%
pest or weed control at 560 g/ha ([4]; 168 h, 560 g ae/ha, 7 DAA): 65%
pest or weed control at 280 g/ha ([4]; 336 h, 280 g ae/ha, 14 DAA): 85%
pest or weed control at 560 g/ha ([4]; 336 h, 560 g ae/ha, 14 DAA): 83%
TGA Data (rate of weight loss, volatility) [5]: 4.1 µg/min
AVE. ABUTH, percent reduction in plant size relative to the untreated control ([6]; 280 g ae/ha): 65%
AVE. ABUTH, percent reduction in plant size relative to the untreated control ([6]; 560 g ae/ha): 83%
pest or weed control at 280 g/ha ([6]; 168 h, 280 g ae/ha, 7 DAA): 48%
pest or weed control at 560 g/ha ([6]; 168 h, 560 g ae/ha, 7 DAA): 68%
pest or weed control at 280 g/ha ([6]; 336 h, 280 g ae/ha, 14 DAA): 65%
pest or weed control at 560 g/ha ([6]; 336 h, 560 g ae/ha, 14 DAA): 80%
Overall Ave % Weed Control ([7]; 280 g ae/ha): 84%
Overall Ave % Weed Control ([7]; 560 g ae/ha): 91%
Ave. AMATA, percent reduction in plant size relative to the untreated control ([8]; 280 g ae/ha): 83%
Ave. AMATA, percent reduction in plant size relative to the untreated control ([8]; 560 g ae/ha): 89%
pest or weed control at 280 g/ha ([8]; 168 h, 280 g ae/ha, 7 DAA): 73%
pest or weed control at 560 g/ha ([8]; 168 h, 560 g ae/ha, 7 DAA): 70%
pest or weed control at 280 g/ha ([8]; 336 h, 280 g ae/ha, 14 DAA): 78%
pest or weed control at 560 g/ha ([8]; 336 h, 560 g ae/ha, 14 DAA): 80%

C#CCN1C(=O)C(F)(F)Oc2cc(F)c(-n3c(=O)n(C)c(=S)n(C)c3=O)cc21 [Trifludimoxazin, trifludimoxazin]
% Control (Corn (ZEAMX); [10]): 5% and 10%
% Control (Corn (ZEAMX); [11]): 15% and 5% and 10%
% Control (Corn (ZEAMX); [12]): 15% and 20% and 10%
% Control (Horseweed (ERICA); [13]): 25% and 30%
% Control (Horseweed (ERICA); [14]): 30% and 25%
% Control ([9]; Trial Bridge 2, Trifludimoxazin 12.5 g ai or ae/ha alone (B2 rate 0)): 100%
% Control [9, 13]: 100%
% Control [9, 14]: 100%
% Control (Tall Waterhemp (AMATA); [10]): 100%
% Control (Tall Waterhemp (AMATA); [11]): 100%
% Control (Tall Waterhemp (AMATA); [12]): 100%
% Control (Velvetleaf (ABUTH); Trifludimoxazin alone 12.5 g ai or ae/ha): 100%
% Control (Velvetleaf (ABUTH); Trifludimoxazin alone 25 g ai or ae/ha): 100%
% Control (Velvetleaf (ABUTH); Trifludimoxazin alone 50 g ai or ae/ha): 100%
